Measurements reported in patent publication US20240076615A1, “MODELS AND METHODS FOR RAPID SCREENING OF THE EFFICACY OF IMMUNOREGULATING DRUGS” (priority 2022, published 2024).

System: tumor cells and immune cells of a patient with ovarian cancer
Test: IO-FIVE capsule tube test in mice, ovarian cancer patient (Example 3), CTG and FACS
Assay type: in vivo, human
Conditions: day 10; tumor sample after addition of autologous TIL cells
Description: The following was collected for cell identification: a single cell suspension of tumor tissue samples of patients before purification, tumor cells after purification, enriched immune cells (containing CD3+T) eluted from the column, and a cell suspension in which tumor cells after purification and immune cells were mixed in a certain ratio (1.5:1 to 15:1), to yield a final cell count of 0.1 to 0.3 million cells. (Note that if the viability of immune cells eluted from the column was less than 20%, then downstream experiments and operations could not be performed, especially since activated immune cells were more likely to undergo activation-induced apoptosis). […]
According to the data analyzed in step of flow cytometry, the CD45− tumor cells and CD3+ T cells were mixed in a certain ratio (about 1.5:1-15:1). […]
3-21 days after administration (day 10 here), the mice were euthanized, and the PVDF tubes were removed. Cell viability was quantified by the CellTiter-Glo chemiluminescence method, and the relative ratio and basic phenotype of tumor cells and immune cells in PVDF tubes were detected by flow cytometry.
The results were analyzed by Flowjo software.

In the case of `NC(=O)c1cccc2cn(-c3ccc([C@@H]4CCCNC4)cc3)nc12` [PARP inhibitor, Niraparib], the “viability of total cells / overall tumor viability (CTG)” value is reported as “neither PD1 antibody nor PARP inhibitor mono-therapy could inhibit”.
